Results published in PubChem BioAssay AID1963863 (Molecular Pharmacology Branch, DTP, NCI, 2024).

Test system: 931267-113-T-J1-PDC KRAS spheroid with HUVEC/MSC, viability
Assay: Anticancer human tumor 931267-113-T-J1-PDC patient-derived colon adenocarcinoma cell line growth inhibition [KRAS2]
Details: for IC50: curve of first compound; for viability, T/C: stronger effect = lower value
Summary of the method: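 Combination screen of spheroid viability in tumor-cell co-cultures with endothelial (HUVEC) and mesenchymal stem cell stroma. Each agent was tested in half-log dilutions, topping at clinical Cmax or at 10 microM without a known Cmax.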

[1] = second compound 0.1 µM, first compound 0.0316 µM
[2] = second compound 0.1 µM, first compound 0.1 µM
[3] = second compound 0.1 µM, first compound 0.316 µM
[4] = second compound 0.1 µM, first compound 1 µM
[5] = second compound 0.1 µM, first compound 3.16 µM
[6] = second compound 0.1 µM, first compound 10 µM
[7] = second compound 0.316 µM, first compound 0.0316 µM
[8] = second compound 0.316 µM, first compound 0.1 µM
[9] = second compound 0.316 µM, first compound 0.316 µM
[10] = second compound 0.316 µM, first compound 1 µM
[11] = second compound 0.316 µM, first compound 3.16 µM
[12] = second compound 0.316 µM, first compound 10 µM
[13] = second compound 1 µM, first compound 0.0316 µM
[14] = second compound 1 µM, first compound 0.1 µM
[15] = second compound 1 µM, first compound 0.316 µM
[16] = second compound 1 µM, first compound 1 µM
[17] = second compound 1 µM, first compound 3.16 µM
[18] = second compound 1 µM, first compound 10 µM
[19] = second compound 3.16 µM, first compound 0.0316 µM
[20] = second compound 3.16 µM, first compound 0.1 µM
[21] = second compound 3.16 µM, first compound 0.316 µM
[22] = second compound 3.16 µM, first compound 1 µM
[23] = second compound 3.16 µM, first compound 3.16 µM
[24] = second compound 3.16 µM, first compound 10 µM
[25] = second compound 10 µM, first compound 0.0316 µM
[26] = second compound 10 µM, first compound 0.1 µM
[27] = second compound 10 µM, first compound 0.316 µM
[28] = second compound 10 µM, first compound 1 µM
[29] = second compound 10 µM, first compound 3.16 µM
[30] = second compound 10 µM, first compound 10 µM
[31] = second compound 0.1 µM, first compound 0.00316 µM
[32] = second compound 0.1 µM, first compound 0.01 µM
[33] = second compound 0.316 µM, first compound 0.00316 µM
[34] = second compound 0.316 µM, first compound 0.01 µM
[35] = second compound 1 µM, first compound 0.00316 µM
[36] = second compound 1 µM, first compound 0.01 µM
[37] = second compound 3.16 µM, first compound 0.00316 µM
[38] = second compound 3.16 µM, first compound 0.01 µM
[39] = second compound 10 µM, first compound 0.00316 µM
[40] = second compound 10 µM, first compound 0.01 µM
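Note: compound exposure lasted 7 days before the readout.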
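Throughout, for viability, T/C: 100% = DMSO vehicle control viability.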

Row | SMILES | IC50 (second compound 0.1 µM) [nM] | IC50 (second compound 0.316 µM) [nM] | IC50 (second compound 1 µM) [nM] | IC50 (second compound 3.16 µM) [nM] | IC50 (second compound 10 µM) [nM] | viability, T/C [1] [%] | viability, T/C [2] [%] | viability, T/C [3] [%] | viability, T/C [4] [%] | viability, T/C [7] [%] | viability, T/C [8] [%] | viability, T/C [9] [%] | viability, T/C [10] [%] | viability, T/C [13] [%] | viability, T/C [14] [%] | viability, T/C [15] [%] | viability, T/C [19] [%] | viability, T/C [20] [%] | viability, T/C [25] [%] | viability, T/C [26] [%] | further results
1 | CC(C)NCC(C(=O)N1CCN(c2ncnc3c2C(C)CC3O)CC1)c1ccc(Cl)cc1 (stereo not given) + COc1cc2nc(C)nc(NC(C)c3cc(N)cc(C(F)(F)F)c3)c2cc1OC1CCOC1 | > 10000 | 5270 | 4360 | 1620 | < 31.6 | 87.4 | 105 | 104 | 77.2 | 106 | 91.6 | 83.3 | 76.2 | 88 | 76.9 | 72.7 | 78.5 | 76.7 | 0.91 | 1.02 | viability, T/C [5]: 58.3%; viability, T/C [6]: 59.9%; viability, T/C [11]: 56%; viability, T/C [12]: 40.4%; viability, T/C [16]: 70.4%; viability, T/C [17]: 54%; viability, T/C [18]: 37.9%; viability, T/C [21]: 67.2%; viability, T/C [22]: 54.6%; viability, T/C [23]: 42.7%; viability, T/C [24]: 20.6%; viability, T/C [27]: 0.68%; viability, T/C [28]: 0.76%; viability, T/C [29]: 0.45%; viability, T/C [30]: 0.48%
2 | CCN1CCN(Cc2ccc(Nc3ncc(F)c(-c4cc(F)c5nc(C)n(C(C)C)c5c4)n3)nc2)CC1 + COc1cc2nc(C)nc(NC(C)c3cc(N)cc(C(F)(F)F)c3)c2cc1OC1CCOC1 | 454 | 122 | 258 | 68 | < 3.16 | 62.5 | 74.7 | 45.5 | 45.9 | 72.2 | 51.2 | 47.2 | 37.4 | 76.3 | 56.4 | 53.2 | 49.7 | 48.8 | 2.06 | 3.4 | viability, T/C [31]: 86.4%; viability, T/C [32]: 86.8%; viability, T/C [33]: 80.6%; viability, T/C [34]: 90.1%; viability, T/C [35]: 78.7%; viability, T/C [36]: 78.1%; viability, T/C [16]: 42.7%; viability, T/C [37]: 74.5%; viability, T/C [38]: 67.2%; viability, T/C [21]: 42.4%; viability, T/C [22]: 27.1%; viability, T/C [39]: 3.71%; viability, T/C [40]: 1.83%; viability, T/C [27]: 1.38%; viability, T/C [28]: 0.23%
3 | CCNC(=O)CC1N=C(c2ccc(Cl)cc2)c2cc(OC)ccc2-n2c(C)nnc21 (stereo not given) + COc1cc2nc(C)nc(NC(C)c3cc(N)cc(C(F)(F)F)c3)c2cc1OC1CCOC1 | 1760 | 711 | 634 | 506 | < 31.6 | 81.1 | 73.4 | 58.7 | 63.5 | 78.1 | 62.4 | 75.9 | 40.7 | 66.1 | 76.3 | 59.1 | 59.5 | 64.7 | 2.75 | 3.6 | viability, T/C [5]: 41.7%; viability, T/C [6]: 31.9%; viability, T/C [11]: 31.4%; viability, T/C [12]: 26.6%; viability, T/C [16]: 42.1%; viability, T/C [17]: 30.8%; viability, T/C [18]: 22.4%; viability, T/C [21]: 62.4%; viability, T/C [22]: 32.5%; viability, T/C [23]: 23.2%; viability, T/C [24]: 22%; viability, T/C [27]: 1.18%; viability, T/C [28]: 0.76%; viability, T/C [29]: 0.92%; viability, T/C [30]: 0.42%
4 | Cn1ncnc1[C@H]1c2n[nH]c(=O)c3cc(F)cc(c23)N[C@@H]1c1ccc(F)cc1 + COc1cc2nc(C)nc(NC(C)c3cc(N)cc(C(F)(F)F)c3)c2cc1OC1CCOC1 | > 100 | > 100 | > 100 | > 100 | < 0.316 | 88.5 | 74.4 | – | – | 92.4 | 77.9 | – | – | 83.4 | 95.4 | – | 63.5 | 52.4 | 0.75 | 1.25 | viability, T/C (second compound 0.1 µM, first compound 0.000316 µM): 103%; viability, T/C (second compound 0.1 µM, first compound 0.001 µM): 88.5%; viability, T/C [31]: 86.6%; viability, T/C [32]: 107%; viability, T/C (second compound 0.316 µM, first compound 0.000316 µM): 83.9%; viability, T/C (second compound 0.316 µM, first compound 0.001 µM): 108%; viability, T/C [33]: 83.6%; viability, T/C [34]: 96.3%; viability, T/C (second compound 1 µM, first compound 0.000316 µM): 108%; viability, T/C (second compound 1 µM, first compound 0.001 µM): 99.8%; viability, T/C [35]: 79.7%; viability, T/C [36]: 88.3%; viability, T/C (second compound 3.16 µM, first compound 0.000316 µM): 69.5%; viability, T/C (second compound 3.16 µM, first compound 0.001 µM): 87%; viability, T/C [37]: 61.6%; viability, T/C [38]: 67.6%; viability, T/C (second compound 10 µM, first compound 0.000316 µM): 0.8%; viability, T/C (second compound 10 µM, first compound 0.001 µM): 0.47%; viability, T/C [39]: 0.63%; viability, T/C [40]: 1.27%
